Results published in PubChem BioAssay AID256 (DTP/NCI, 2004).
Toxic doses and inconclusive results are not listed. How the source made its calls: active means survival T/C of 150% or more; inactive means T/C below 125% in these data.

Tested on: CD2F1 mice, L1210 leukemia ip, survival T/C
Test: NCI In Vivo Anticancer Drug Screen. Data for tumor model L1210 Leukemia (intraperitoneal) in CD2F1 (CDF1) mice
Conditions: higher = longer survival
How it was run: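 Compound-dosed mice with transplantable tumor versus matched vehicle controls; endpoint ratio T/C reported.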

[1] = endpoint: mean survival time, dose: 50.0 mg/kg/injection, schedule: Q01DX009 (ip), vehicle: saline with Tween-80
[2] = endpoint: mean survival time, dose: 100.0 mg/kg/injection, schedule: Q01DX009 (ip), vehicle: saline with Tween-80
[3] = endpoint: mean survival time, dose: 3.13 mg/kg/injection, schedule: Q01DX009 (ip), vehicle: saline with Tween-80
[4] = endpoint: mean survival time, dose: 100.0 mg/kg/injection, schedule: Q04DX003 (ip), vehicle: saline with Tween-80
[5] = endpoint: mean survival time, dose: 200.0 mg/kg/injection, schedule: Q04DX003 (ip), vehicle: saline with Tween-80
[6] = endpoint: mean survival time, dose: 400.0 mg/kg/injection, schedule: Q04DX003 (ip), vehicle: saline with Tween-80
[7] = endpoint: mean survival time, dose: 200.0 mg/kg/injection, schedule: Q01DX009 (ip), vehicle: saline with Tween-80
[8] = endpoint: mean survival time, dose: 100.0 mg/kg/injection, schedule: Q04DX002 (ip), vehicle: saline with Tween-80
[9] = endpoint: mean survival time, dose: 200.0 mg/kg/injection, schedule: Q04DX002 (ip), vehicle: saline with Tween-80
[10] = endpoint: mean survival time, dose: 400.0 mg/kg/injection, schedule: Q04DX002 (ip), vehicle: saline with Tween-80

Measured: T/C

COc1cc(OC)c(NC(=O)OCCOc2ccc(Cl)cc2Cl)cc1Cl
inactive: [1] 92 % of control | [2] 88 % of control

COC1CCCC[CH]1[Hg][Br] (centres undefined)
inactive: [3] 102 % of control

N/N=C1/C(=O)c2cccc3cccc1c23
inactive: [4] 100 % of control | [5] 102 % of control | [6] 92 % of control

NC(=O)c1cc(Cl)nc2nc(Cl)nc(N)c12
inactive: endpoint: median survival time, dose: 25.0 mg/kg/injection, schedule: Q01DX009 (ip), vehicle: saline with Tween-80 89 % of control | endpoint: median survival time, dose: 50.0 mg/kg/injection, schedule: Q01DX009 (ip), vehicle: saline with Tween-80 94 % of control | endpoint: median survival time, dose: 100.0 mg/kg/injection, schedule: Q01DX009 (ip), vehicle: saline with Tween-80 100 % of control | endpoint: median survival time, dose: 200.0 mg/kg/injection, schedule: Q01DX009 (ip), vehicle: saline with Tween-80 100 % of control | endpoint: median survival time, dose: 400.0 mg/kg/injection, schedule: Q01DX009 (ip), vehicle: saline with Tween-80 101 % of control

OCCC1=CCCCC1
inactive: [2] 91 % of control | [7] 97 % of control | endpoint: mean survival time, dose: 400.0 mg/kg/injection, schedule: Q01DX009 (ip), vehicle: saline with Tween-80 98 % of control

O=C(O)C1Cc2c([nH]c3ccccc23)C2CCC(=O)N12 (centres undefined)
inactive: [8] 100 % of control | [9] 108 % of control | [10] 100 % of control

CCN(CC)CCCC(C)NCCCCNC(C)CCCN(CC)CC (centres undefined)
inactive: endpoint: mean survival time, dose: 12.5 mg/kg/injection, schedule: Q01DX009 (ip), vehicle: water 90 % of control | endpoint: mean survival time, dose: 25.0 mg/kg/injection, schedule: Q01DX009 (ip), vehicle: water 92 % of control

NC(=O)c1ccccc1CO
inactive: [8] 102 % of control | [9] 98 % of control | [10] 98 % of control

CC(=O)Nc1ncc2ccccc2c1-c1ccc(NC(=O)CN(CCO)CCO)cc1
inactive: endpoint: mean survival time, dose: 25.0 mg/kg/injection, schedule: Q04DX003 (ip), vehicle: other 104 % of control | endpoint: mean survival time, dose: 50.0 mg/kg/injection, schedule: Q04DX003 (ip), vehicle: other 108 % of control | endpoint: mean survival time, dose: 100.0 mg/kg/injection, schedule: Q04DX003 (ip), vehicle: other 100 % of control | endpoint: mean survival time, dose: 200.0 mg/kg/injection, schedule: Q04DX003 (ip), vehicle: other 96 % of control | endpoint: mean survival time, dose: 400.0 mg/kg/injection, schedule: Q04DX003 (ip), vehicle: other 104 % of control

[Cl][Pt+].[NH-]c1ccccc1C=Nc1ccccc1C=O
inactive: endpoint: median survival time, dose: 11.5 mg/kg/injection, schedule: Q04DX003 (ip), vehicle: saline with Tween-80 100 % of control | endpoint: median survival time, dose: 23.0 mg/kg/injection, schedule: Q04DX003 (ip), vehicle: saline with Tween-80 105 % of control | endpoint: median survival time, dose: 46.0 mg/kg/injection, schedule: Q04DX003 (ip), vehicle: saline with Tween-80 105 % of control | endpoint: median survival time, dose: 92.0 mg/kg/injection, schedule: Q04DX003 (ip), vehicle: saline with Tween-80 97 % of control | endpoint: median survival time, dose: 184.0 mg/kg/injection, schedule: Q04DX003 (ip), vehicle: saline with Tween-80 98 % of control

CCc1cccc[n+]1Cc1ccccc1
inactive: [3] 95 % of control | endpoint: mean survival time, dose: 6.25 mg/kg/injection, schedule: Q01DX009 (ip), vehicle: saline with Tween-80 91 % of control | endpoint: mean survival time, dose: 12.5 mg/kg/injection, schedule: Q01DX009 (ip), vehicle: saline with Tween-80 98 % of control

C/C=C/C(OC(C)=O)OC(C)=O
inactive: [2] 97 % of control | [7] 103 % of control

COc1ccc(C(=O)c2cccc3c2-c2ccccc2C3(c2ccc(OC)c(C)c2)c2ccc(OC)c(C)c2)cc1C
inactive: endpoint: mean survival time, dose: 5.0 mg/kg/injection, schedule: Q01DX001 (ip), vehicle: other 96 % of control | endpoint: mean survival time, dose: 10.0 mg/kg/injection, schedule: Q01DX001 (ip), vehicle: other 88 % of control | endpoint: mean survival time, dose: 40.0 mg/kg/injection, schedule: Q01DX001 (ip), vehicle: other 86 % of control | endpoint: mean survival time, dose: 80.0 mg/kg/injection, schedule: Q01DX001 (ip), vehicle: other 91 % of control

CCOC(=O)N1Cc2cc3ccc(OC)cc3nc2C1
inactive: endpoint: mean survival time, dose: 100.0 mg/kg/injection, schedule: Q01DX001 (ip), vehicle: saline with Tween-80 98 % of control | endpoint: mean survival time, dose: 200.0 mg/kg/injection, schedule: Q01DX001 (ip), vehicle: saline with Tween-80 101 % of control | endpoint: mean survival time, dose: 400.0 mg/kg/injection, schedule: Q01DX001 (ip), vehicle: saline with Tween-80 103 % of control

COc1ccc(-c2cc(C(=O)Nc3cc(C(F)(F)F)cc(C(F)(F)F)c3)c3ccccc3n2)cc1
inactive: endpoint: median survival time, dose: 25.0 mg/kg/injection, schedule: Q01DX005 (ip), vehicle: DMSO 100 % of control | endpoint: median survival time, dose: 50.0 mg/kg/injection, schedule: Q01DX005 (ip), vehicle: DMSO 98 % of control | endpoint: median survival time, dose: 100.0 mg/kg/injection, schedule: Q01DX005 (ip), vehicle: DMSO 98 % of control | endpoint: median survival time, dose: 200.0 mg/kg/injection, schedule: Q01DX005 (ip), vehicle: DMSO 109 % of control | endpoint: median survival time, dose: 400.0 mg/kg/injection, schedule: Q01DX005 (ip), vehicle: DMSO 106 % of control

ClCc1ccc(Cl)c(Cl)c1
inactive: endpoint: mean survival time, dose: 100.0 mg/kg/injection, schedule: Q04DX003 (ip), vehicle: Klucel (hydroxypropylcellulose) (HPC) 102 % of control | endpoint: mean survival time, dose: 200.0 mg/kg/injection, schedule: Q04DX003 (ip), vehicle: Klucel (hydroxypropylcellulose) (HPC) 102 % of control | endpoint: mean survival time, dose: 400.0 mg/kg/injection, schedule: Q04DX003 (ip), vehicle: Klucel (hydroxypropylcellulose) (HPC) 102 % of control

CCN=C(N)SCCS(=O)(=O)O
inactive: endpoint: mean survival time, dose: 100.0 mg/kg/injection, schedule: Q01DX005 (ip), vehicle: saline 103 % of control | endpoint: mean survival time, dose: 100.0 mg/kg/injection, schedule: Q01DX009 (ip), vehicle: saline 97 % of control | endpoint: mean survival time, dose: 200.0 mg/kg/injection, schedule: Q01DX005 (ip), vehicle: saline 106 % of control | endpoint: mean survival time, dose: 200.0 mg/kg/injection, schedule: Q01DX009 (ip), vehicle: saline 97 % of control | endpoint: mean survival time, dose: 400.0 mg/kg/injection, schedule: Q01DX005 (ip), vehicle: saline 95 % of control | endpoint: mean survival time, dose: 400.0 mg/kg/injection, schedule: Q01DX009 (ip), vehicle: saline 97 % of control

S=C1SCCS1
inactive: endpoint: mean survival time, dose: 100.0 mg/kg/injection, schedule: Q04DX003 (ip), vehicle: saline sonified 98 % of control | endpoint: mean survival time, dose: 200.0 mg/kg/injection, schedule: Q04DX003 (ip), vehicle: saline sonified 107 % of control | endpoint: mean survival time, dose: 400.0 mg/kg/injection, schedule: Q04DX003 (ip), vehicle: saline sonified 89 % of control

COc1cc(Cl)ccc1NC(=O)Oc1c(Cl)cccc1Cl
inactive: [1] 104 % of control | [2] 100 % of control | [7] 100 % of control

COc1ccc2[nH]cc(CN(C)C)c2c1
inactive: endpoint: mean survival time, dose: 25.0 mg/kg/injection, schedule: Q01DX009 (ip), vehicle: saline with Tween-80 100 % of control | endpoint: mean survival time, dose: 33.0 mg/kg/injection, schedule: Q01DX009 (ip), vehicle: saline with Tween-80 101 % of control | [1] 106 % of control | [2] 105 % of control | [4] 88 % of control

Cc1ccc(NC(=O)Nc2ccccc2C(N)=O)cc1[N+](=O)[O-]
inactive: [1] 94 % of control | [2] 98 % of control

O=C1N(c2ccccc2)SN2C3C=CC(C4CC43)N12 (centres undefined)
inactive: endpoint: mean survival time, dose: 12.5 mg/kg/injection, schedule: Q04DX002 (ip), vehicle: saline with Tween-80 114 % of control | endpoint: mean survival time, dose: 25.0 mg/kg/injection, schedule: Q04DX002 (ip), vehicle: saline with Tween-80 105 % of control

COc1ccc(OC)c(C2=CCCCCC2)c1OC
inactive: [4] 101 % of control | [5] 101 % of control | [6] 98 % of control

C[N+](C)(C)C(C1=CCCC1=O)c1ccccc1 (centres undefined)
inactive: endpoint: mean survival time, dose: 75.0 mg/kg/injection, schedule: Q01DX001 (ip), vehicle: saline 103 % of control | endpoint: mean survival time, dose: 150.0 mg/kg/injection, schedule: Q01DX001 (ip), vehicle: saline 91 % of control | endpoint: mean survival time, dose: 300.0 mg/kg/injection, schedule: Q01DX001 (ip), vehicle: saline 100 % of control
